Here are results for three molecules from patent publication US7262151B2, “Methods and compositions for production of lipo-chito oligosaccharides by rhizobacteria” (McGill University, priority 2001, dated 2007).

The test system of one test is B. japonicum USDA 110. The experiment in a line: LCO production by B. japonicum USDA 110 (butanol extraction, HPLC). The class given is cell-based, Bradyrhizobium japonicum. How it is done:
Cultures of B. japonicum (strain USDA 110) were grown at 28° C. in 600 ml of sterile yeast mannitol medium (YEM) at pH 6.8. The culture was shaken at 150 rpm until an OD620 of 0.4 to 0.6 was achieved (4 to 6 days). When the culture reached this stage, it was divided equally into four flasks (150 mL) and specific concentrations of JA and genistein were added to the cultures.
One hundred and fifty mL of each culture were extracted with 40 mL of the HPLC-grade butanol (Fisher Science Ltd., 112 Colonnade Road, Nepean, ON, Canada) by shaking together for 5 minutes. The two phases were then allowed to separate by leaving the mixture to stand overnight. The upper layer (butanol) was collected with a glass pipette and 25 mL were placed in a 250 ml evaporation flask. LCO extract solutions were stored at 4° C. until evaporation. This step was conducted at 80° C. with a Yamato RE 500 Rotary Evaporator (Yamato Scientific American Inc., Orangeburge, N.Y., USA). The butanol phase was evaporated down to 2 to 3 mL. The resulting light brown material was dissolved in 4 ml of 18% acetonitrile and stored in the dark at 4° C. in a glass tube sealed with parafilm.
For HPLC analysis we used a Vydac C18 reversed—phase column (VYDAC, Hesperia, Calif., USA) with a flow rate of 1.0 mL/min and a Vydac guard column (VYDAC, Hesperia, Calif., USA). We used at least 10 min. of isocratic run with 18% acetonitrile (AcN/H2O; w/w) to establish a baseline. The baseline value was always about 0.010. When a sample was loaded we conducted an isocratic elution with 18% AcN for 45 min. This step removed all non-polar light fractions. We then applied a gradient elution (18 to 82% AcN) for 70 min. LCOs begin to appear at 84 to 86 min of HPLC run time. We used B. japonicum Nod factor (BjV (C18:1, MeFuc)) obtained from G. Stacey (University of Tennessee, Knoxville, Tenn.) as a standard. The identity of the LCO was confirmed by the Complex Carbohydrate Research Center at the University of Georgia with FAB-MS and MALDI-TOF spectrometry analysis.
There were two experiments conducted. In the first the treatments consisted of factorial combinations of two concentrations (0 and 20 μM) of two signal materials (JA and genistein (zhang and Smith, 1995)). The experiment was organized following a randomized complete block design with three blocks. In experiment 1, two temperatures were used (17 and 25° C.). […]
Each of the above experiments was conducted two times and the experimental results were pooled and analyzed statistically by analysis of variance using the Statistical Analysis System computer package (SAS Institute Inc. 1980). […] Since the effects of temperature on growth were very large, the data from two temperatures used in the first experiment were analyzed separately.

The subject of test [1] is Bradyrhizobium japonicum USDA 3. Kind of test: LCO production by wild type USDA3 (XAD resin extraction, HPLC). Type of test: cell-based. Conditions: for production of LCOs, in words: at optimum concentrations. How it is done:
Bradyrhizobium japonicum (strain USDA 3) was grown at 28° C. in yeast extract mannitol medium (YEM) (mannitol 10 g, K2HPO4 0.5 g, MgSO4.7H2O 0.2 g, NaCl 0.1 g, yeast extract 0.4 g, and distilled water 1000 ml), pH 6.8, shaken at 150 rpm until the OD620 reached 0.4-0.6 (4-6 d) in the dark. Thereafter, 2.0 l of bacterial subculture was started by inoculating with material from the first culture (5 ml of the first culture per 250 ml of YEM media), until the OD620 reached to 0.2-0.4. At this stage, methyl jasmonate, jasmonic acid and genistein were added to culture so that the final concentraton for methyl jasmonate and jasmonic acid was 5, 10, 25, 50 and 100 μM and 5 μM for genistein. The culture was incubated for 48-96 h and the LCO extracted according to the following procedure.
The LCO from the induced bacterial culture was isolated with XAD resins. Before using XAD resins for extraction, they were first conditioned. Each 40 grams of XAD resins were first washed two times with 20 mL acetone after conditioning for 15 minutes. This was followed by two washes of 20 mL methanol when the resins were conditioned for 15 minutes. Finally, the XAD resins were conditioned (5 min) and washed with 20 mL dd. water two times. The conditioned resins were placed in the refrigerator at 4° C. until use.
For each one liter of bacterial culture, 40 grams of resin was added to the flask and these were shaken together overnight at 150 rpm. The culture along with the resin was poured through a funnel into a flask fitted with a course brass mesh (fine enough to allow the culture go quickly through and filter out the resin without any loss). At this stage, the resins are washed with water. In order to extract LCO from the resin, the XAD resin was passed through a vacuum filtration system. The fritted glass base of the system was fitted with Whatman #1 paper disk with the objective to keep the solvent with the bead until vacuum is applied. The resin beads were washed two times with 40 mL methanol after conditioning for 5 minutes. […]

With `CC/C=C\C[C@H]1C(=O)CC[C@@H]1CC(=O)O` [JA, [1R-[1α,2β(Z)]]-3-oxo-2-(pentenyl)cyclopentaneacetic acid], the “effect on LCO production, in words” value in the test on B. japonicum USDA 110 (25° C., genistein present) is “not at 25 °C”; in the test on B. japonicum USDA 110 (JA alone, without genistein, either temperature), “can not promote LCO production”; in the test on B. japonicum USDA 110 (low temperature (17° C.), genistein present), “can improve LCO production”. In addition, the “production of LCOs, in words” value in test [1] is given as “induced the production of LCOs”.

With `O=c1c(-c2ccc(O)cc2)coc2cc(O)cc(O)c12` [GEN, 5,7,4′-trihydroxyisoflavone], the “peak-time for LCO production” value in the test with B. japonicum USDA 110 (after genistein was added to the cell culture) was 8 to 10 h.

As to `CC/C=C\CC1C(=O)CCC1CC(=O)OC` (stereo not shown) [MeJA, methyl jasmonate], the “LCO production compared with optimum genistein concentration (5 μM)” value in test [1] (100 μM) is given as “substantially more LCO”. Moreover, the “production of LCOs, in words” value in test [1] is on record as “induced the production of LCOs”.
